Results published in patent publication US9873709B2 (priority 2013, dated 2018).
Read-outs that look alike come from different tables or passages of the source.

What was measured:
[1] = system: JAK1-dependent STAT6 phosphorylation downstream of IL-13 stimulation in BEAS-2B human bronchial epithelial cells; experiment: cells; settings: read-out: IL13-pSTAT6 BEASB2B IC50
Protocol: Inhibitor potency (EC50) was determined in cell-based assays designed to measure JAK1 dependent STAT phosphorylation.
Prior to use in the assays, TF-1 cells were starved of GM-CSF overnight in OptiMEM medium (Life Technologies, Grand Island, N.Y.) supplemented with 0.5% charcoal/dextran stripped fetal bovine serum (FBS), 0.1 mM non-essential amino acids (NEAA), and 1 mM sodium pyruvate. The assays were run in 384-well plates in serum-free OptiMEM medium using 300,000 cells per well. In a second assay approach, BEAS-2B human bronchial epithelial cells obtained from ATCC were plated at 100,000 cells per well of a 96-well plate one day prior to the experiment. The BEAS-2B assay was run in complete growth medium (bronchial epithelial basal medium plus bulletkit; Lonza; Basel, Switzerland).
Test compounds were serially diluted 1:2 in DMSO and then diluted 1:50 in medium just before use. Diluted compounds were added to the cells, for a final DMSO concentration of 0.2%, and incubated for 30 min (for the TF-1 assay) or 1 hr (for the BEAS-2B assay) at 37° C. Then, cells were stimulated with human recombinant cytokine at their respective EC90 concentrations, as previously determined for each individual lot. […] The resultant samples were frozen in the plates at −80° C. Compound mediated inhibition of STAT6 phosphorylation was measured in the cell lysates using MesoScale Discovery (MSD) technology (Gaithersburg, Md.).

[2] = system: JAK1-dependent STAT6 phosphorylation downstream of IL-13 stimulation in TF-1 human erythroleukemia cells; experiment: cells; settings: TF-1, read-out: IL-13-pSTAT6 IC50
[3] = target: isolated recombinant JAK2 kinase domain (Homo sapiens (Human), UniProt O60674); settings: read-out: JAK2 Ki
isolated recombinant JAK2 kinase domain, sequence (O60674 849-1124): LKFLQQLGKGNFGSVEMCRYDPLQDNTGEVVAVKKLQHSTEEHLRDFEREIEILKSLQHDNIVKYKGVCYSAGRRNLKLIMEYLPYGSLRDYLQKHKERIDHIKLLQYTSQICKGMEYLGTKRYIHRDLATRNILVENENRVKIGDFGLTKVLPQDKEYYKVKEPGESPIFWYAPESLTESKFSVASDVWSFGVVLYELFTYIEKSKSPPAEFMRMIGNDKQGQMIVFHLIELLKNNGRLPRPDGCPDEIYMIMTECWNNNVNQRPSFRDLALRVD

[4] = isolated recombinant JAK2 kinase domain, 25 μM ATP

Row | Structure (SMILES) | IC50 [1] | IC50 [2] | Ki [3, 4] | Ki [3]
1 | CC1CN(C2CCN(C(=O)c3ccc(Nc4nc5c(N6CCC(O)(c7ccc(Cl)cc7)CC6)cccn5n4)cc3)CC2)CC(C)O1 (stereo not drawn) [Example 1-118, [4-[[8-[4-(4-chlorophenyl)-4-hydroxy-1-piperidyl]-[1,2,4]triazolo[1,5-a]pyridin-2-yl]amino]phenyl]-[4-(2,6-dimethylmorpholin-4-yl)-1-piperidyl]methanone] | 112 nM | – | – | –
2 | CC(C)N1CCC(CN(C)C(=O)c2ccc(Nc3nc4c(N5CCC(O)(c6ccc(Cl)cc6)CC5)cccn4n3)cc2)C1 (stereo not drawn) [Example 1-129, 4-[[8-[4-(4-chlorophenyl)-4-hydroxy-1-piperidyl]-[1,2,4]triazolo[1,5-a]pyridin-2-yl]amino]-N-[(1-isopropylpyrrolidin-3-yl)methyl]-N-methyl-benzamide] | – | 37.7 nM | 1.74 nM | –
3 | CN(Cc1cccnc1)C(=O)c1ccc(Nc2nc3c(N4CCC(O)(c5ccc(Cl)cc5)CC4)cccn3n2)cc1 [Example 1-138, 4-[[8-[4-(4-chlorophenyl)-4-hydroxy-1-piperidyl]-[1,2,4]triazolo[1,5-a]pyridin-2-yl]amino]-N-methyl-N-(3-pyridylmethyl)benzamide] | – | 135 nM | 3.56 nM | –
4 | CN(C)CCN1CCN(C(=O)c2ccc(Nc3nc4c(N5CCC(O)(c6ccc(Cl)cc6)CC5)cccn4n3)cc2)CC1 [Example 1-139, [4-[[8-[4-(4-chlorophenyl)-4-hydroxy-1-piperidyl]-[1,2,4]triazolo[1,5-a]pyridin-2-yl]amino]phenyl]-[4-[2-(dimethylamino)ethyl]piperazin-1-yl]methanone] | – | 20.6 nM | 1.95 nM | –
5 | O=C(c1ccc(Nc2nc3c(N4CCC(O)(c5ccc(Cl)cc5)CC4)cccn3n2)cc1)N1CCCC1c1ccncc1 (stereo not drawn) [Example 1-147, [4-[[8-[4-(4-chlorophenyl)-4-hydroxy-1-piperidyl]-[1,2,4]triazolo[1,5-a]pyridin-2-yl]amino]phenyl]-[2-(4-pyridyl)pyrrolidin-1-yl]methanone] | – | 66.5 nM | 1.41 nM | –
6 | CNC(=O)C1CN(C(=O)c2ccc(Nc3nc4c(N5CCC(O)(c6ccc(Cl)cc6)CC5)cccn4n3)cc2)CCN1Cc1ccccc1 (stereo not drawn) [Example 1-153, 1-benzyl-4-[4-[[8-[4-(4-chlorophenyl)-4-hydroxy-1-piperidyl]-[1,2,4]triazolo[1,5-a]pyridin-2-yl]amino]benzoyl]-N-methyl-piperazine-2-carboxamide] | – | 26 nM | 1.14 nM | –
7 | CN1CCC(CCNC(=O)c2ccc(Nc3nc4c(N5CCC(O)(c6ccc(Cl)cc6)CC5)cccn4n3)cc2)CC1 [Example 1-154, 4-[[8-[4-(4-chlorophenyl)-4-hydroxy-1-piperidyl]-[1,2,4]triazolo[1,5-a]pyridin-2-yl]amino]-N-[2-(1-methyl-4-piperidyl)ethyl]benzamide] | – | 37.3 nM | 0.64 nM | –
8 | N#CCCN1CCN(C(=O)c2ccc(Nc3nc4c(N5CCC(O)(c6ccc(Cl)cc6)CC5)cccn4n3)cc2)CC1 [Example 1-167, 3-[4-[4-[[8-[4-(4-chlorophenyl)-4-hydroxy-1-piperidyl]-[1,2,4]triazolo[1,5-a]pyridin-2-yl]amino]benzoyl]piperazin-1-yl]propanenitrile] | – | 12.1 nM | 2.86 nM | –
9 | CN1CCCC(CN(C)C(=O)c2ccc(Nc3nc4c(N5CCC(O)(c6ccc(Cl)cc6)CC5)cccn4n3)cc2)C1 (stereo not drawn) [Example 1-170, 4-[[8-[4-(4-chlorophenyl)-4-hydroxy-1-piperidyl]-[1,2,4]triazolo[1,5-a]pyridin-2-yl]amino]-N-methyl-N-[(1-methyl-3-piperidyl)methyl] benzamide] | – | 15.5 nM | 0.98 nM | –
10 | O=C(NCCN1CCCCC1)c1ccc(Nc2nc3c(N4CCC(O)(c5ccc(Cl)cc5)CC4)cccn3n2)cc1 [Example 1-173, 4-[[8-[4-(4-chlorophenyl)-4-hydroxy-1-piperidyl]-[1,2,4]triazolo[1,5-a]pyridin-2-yl]amino]-N-[2-(1-piperidyl)ethyl]benzamide] | – | 23.1 nM | 2.45 nM | –
11 | CNC(=O)C1CN(C(C)C)CCN1C(=O)c1ccc(Nc2nc3c(N4CCC(O)(c5ccc(Cl)cc5)CC4)cccn3n2)cc1 (stereo not drawn) [Example 1-174, 1-[4-[[8-[4-(4-chlorophenyl)-4-hydroxy-1-piperidyl]-[1,2,4]triazolo[1,5-a]pyridin-2-yl]amino]benzoyl]-4-isopropyl-N-methyl-piperazine-2-carboxamide] | – | 31.1 nM | 2.31 nM | –
12 | CN1CCC(OC(=O)c2ccc(Nc3nc4c(N5CCC(O)(c6ccc(Cl)cc6)CC5)cccn4n3)cc2)CC1 [Example 1-178, (1-methyl-4-piperidyl) 4-[[8-[4-(4-chlorophenyl)-4-hydroxy-1-piperidyl]-[1,2,4]triazolo[1,5-a]pyridin-2-yl]amino]benzoate] | – | 98.3 nM | 1.07 nM | –
13 | CN1CCC(N(C)C(=O)c2ccc(Nc3nc4c(N5CCC(CO)(c6ccc(Cl)cc6)CC5)cccn4n3)cc2)CC1 [Example 1-246] | – | 5.4 nM | – | 0.33 nM
14 | CN1CCC(N(C)C(=O)c2ccc(Nc3nc4c(N5CCC(c6ccc(Cl)cc6)(C(O)C(F)(F)F)CC5)cccn4n3)cc2)CC1 (stereo not drawn) [Example 1-253, 4-[[8-[4-(4-chlorophenyl)-4-(2,2,2-trifluoro-1-hydroxy-ethyl)-1-piperidyl]-[1,2,4]triazolo[1,5-a]pyridin-2-yl]amino]-N-methyl-N-(1-methyl-4-piperidyl)benzamide] | 418 nM | – | – | –
15 | CN1CCC(N(C)C(=O)c2ccc(Nc3nc4c(N5CCC(c6ccc(Cl)cc6)(C(O)CO)CC5)cccn4n3)cc2)CC1 (stereo not drawn) [Example 1-270, 4-[[8-[4-(4-chlorophenyl)-4-(1,2-dihydroxyethyl)-1-piperidyl]-[1,2,4]triazolo[1,5-a]pyridin-2-yl]amino]-N-methyl-N-(1-methyl-4-piperidyl)benzamide] | 114 nM | – | – | –
16 | O=C(Cn1cc(Nc2nc3c(N4CCC(CO)(c5ccc(Cl)cc5)CC4)cccn3n2)cn1)N1CCC(CN2CCOCC2)CC1 [Example 1-289, 2-[4-[[8-[4-(4-chlorophenyl)-4-(hydroxymethyl)-1-piperidyl]-[1,2,4]triazolo[1,5-a]pyridin-2-yl]amino]pyrazol-1-yl]-1-[4-(morpholinomethyl)-1-piperidyl]ethanone] | 8.1 nM | – | – | –
17 | CNC1CCN(C(=O)Cn2cc(Nc3nc4c(N5CCC(CO)(c6ccc(Cl)cc6)CC5)cccn4n3)cn2)CC1 [Example 1-291, 2-[4-[[8-[4-(4-chlorophenyl)-4-(hydroxymethyl)-1-piperidyl]-[1,2,4]triazolo[1,5-a]pyridin-2-yl]amino]pyrazol-1-yl]-1-[4-(methylamino)-1-piperidyl]ethanone] | 525 nM | – | – | –
18 | CN1CCC(N(C)C(=O)c2ccc(Nc3nc4c(C5=CCC(CC#N)(c6ccc(Cl)cc6)CC5)cccn4n3)cc2)CC1 (stereo not drawn) [Example 1-294, 4-([8-[4-(4-chlorophenyl)-4-(cyanomethyl)cyclohex-1-en-1-yl]-[1,2,4]triazolo[1,5-a]pyridin-2-yl]amino)-N-methyl-N-(1-methylpiperidin-4-yl)benzamide] | – | 62.7 nM | – | 0.4 nM
19 | O=C(NCCCN1CCOCC1)c1ccc(Nc2nc3c(C4C=CN(C(=O)CCC(F)(F)F)CC4)cccn3n2)cc1 (stereo not drawn) [Example 1-295, N-(3-morpholinopropyl)-4-[[8-[1-(4,4,4-trifluorobutanoyl)-3,4-dihydro-2H-pyridin-4-yl]-[1,2,4]triazolo[1,5-a]pyridin-2-yl]amino]benzamide] | 729 nM | – | – | –
20 | CN(CCC#N)C1CCN(C(=O)Cn2cc(Nc3nc4c(N5CCC(CO)(c6ccc(Cl)cc6)CC5)cccn4n3)cn2)CC1 [Example 1-296, 3-[[1-[2-[4-[[8-[4-(4-chlorophenyl)-4-(hydroxymethyl)-1-piperidyl]-[1,2,4]triazolo[1,5-a]pyridin-2-yl]amino]pyrazol-1-yl]acetyl]-4-piperidyl]-methyl-amino]propanenitrile] | 12.6 nM | – | – | –
21 | CC(C)CN1CCC(N(C)C(=O)Cn2cc(Nc3nc4c(C5=CCN(C(=O)CCC(F)(F)F)CC5)cccn4n3)cn2)CC1 [Example 1-297, N-methyl-N-[1-(2-methylpropyl)piperidin-4-yl]-2-[4-([8-[1-(4,4,4-trifluorobutanoyl)-1,2,3,6-tetrahydropyridin-4-yl]-[1,2,4]triazolo[1,5-a]pyridin-2-yl]amino)-1H-pyrazol-1-yl]acetamide] | – | 36.7 nM | – | 9.44 nM
22 | CN1CCC(N(C)C(=O)c2ccc(Nc3nc4c(N5CCC(CC(N)=O)(c6ccc(Cl)cc6)CC5)cccn4n3)cc2)CC1 [Example 1-298] | – | 125 nM | 0.45 nM | –
23 | CN1CCC(N(C)C(=O)c2ccc(Nc3nc4c(N5CCC(CC(=O)N(C)C)(c6ccc(Cl)cc6)CC5)cccn4n3)cc2)CC1 [Example 1-300, 4-([8-[4-(4-chlorophenyl)-4-[(dimethylcarbamoyl)methyl]piperidin-1-yl]-[1,2,4]triazolo[1,5-a]pyridin-2-yl]amino)-N-methyl-N-(1-methylpiperidin-4-yl)benzamide] | – | 26.3 nM | 0.55 nM | –
24 | CCOC(=O)N1CC=C(c2cccn3nc(Nc4ccc(C(=O)N5CCC(N6CCOCC6)CC5)cc4)nc23)CC1 [Example 2-18, ethyl 4-[2-[4-(4-morpholinopiperidine-1-carbonyl)anilino]-[1,2,4]triazolo[1,5-a]pyridin-8-yl]-3,6-dihydro-2H-pyridine-1-carboxylate] | 134 nM | – | – | –
25 | CCOC(=O)N1CC=C(c2cccn3nc(Nc4ccc(C(=O)N5CCC(N6CC(C)OC(C)C6)CC5)cc4)nc23)CC1 (stereo not drawn) [Example 2-63, ethyl 4-[2-[4-[4-(2,6-dimethylmorpholin-4-yl)piperidine-1-carbonyl]anilino]-[1,2,4]triazolo[1,5-a]pyridin-8-yl]-3,6-dihydro-2H-pyridine-1-carboxylate] | 151 nM | – | – | –
26 | CCOC(=O)N1CC=C(c2cccn3nc(Nc4ccc(C(=O)N5CCC(N6CCOCC6)C5)cc4)nc23)CC1 (stereo not drawn) [Example 2-66, ethyl 4-[2-[4-(3-morpholinopyrrolidine-1-carbonyl)anilino]-[1,2,4]triazolo[1,5-a]pyridin-8-yl]-3,6-dihydro-2H-pyridine-1-carboxylate] | 224 nM | – | – | –
